Assays:
[1] = tested on: Puccinia recondita f. sp. tritici; assay: Puccinia recondita f. sp. tritici / wheat / leaf disc preventative (brown rust); type: in vivo; conditions: foliar, wheat leaf segments cv. Kanzler, preventative (inoculated 1 day after application), compared to untreated control
Method: Leaf disks or leaf segments of various plant species are cut from plants grown in a greenhouse. The cut leaf disks or segments are placed in multiwell plates (24-well format) onto water agar. The leaf disks are sprayed with a test solution before (preventative) or after (curative) inoculation. Compounds to be tested are prepared as DMSO solutions (max. 10 mg/ml) which are diluted to the appropriate concentration with 0.025% Tween20 just before spraying. The inoculated leaf disks or segments are incubated under defined conditions (temperature, relative humidity, light, etc.) according to the respective test system. A single evaluation of disease level is carried out 3 to 14 days after inoculation, depending on the pathosystem. Percent disease control relative to the untreated check leaf disks or segments is then calculated. Wheat leaf segments cv. Kanzler are placed on agar in multiwell plates (24-well format) and sprayed with the formulated test compound diluted in water. The leaf disks are inoculated with a spore suspension of the fungus 1 day after application. The inoculated leaf segments are incubated at 19° C. and 75% rh under a light regime of 12 h light/12 h darkness in a climate cabinet and the activity of a compound is assessed as percent disease control compared to untreated when an appropriate level of disease damage appears in untreated check leaf segments (7-9 days after application).

Phakopsora pachyrhizi = Phakopsora pachyrhizi / soybean / leaf disc preventative (Asian soybean rust); type: in vivo; conditions: foliar, soybean leaf disks, compared to untreated control
Method: Leaf disks or leaf segments of various plant species are cut from plants grown in a greenhouse. The cut leaf disks or segments are placed in multiwell plates (24-well format) onto water agar. The leaf disks are sprayed with a test solution before (preventative) or after (curative) inoculation. Compounds to be tested are prepared as DMSO solutions (max. 10 mg/ml) which are diluted to the appropriate concentration with 0.025% Tween20 just before spraying. The inoculated leaf disks or segments are incubated under defined conditions (temperature, relative humidity, light, etc.) according to the respective test system. A single evaluation of disease level is carried out 3 to 14 days after inoculation, depending on the pathosystem. Percent disease control relative to the untreated check leaf disks or segments is then calculated. Soybean leaf disks are placed on water agar in multiwell plates (24-well format) and sprayed with the formulated test compound diluted in water. One day after application leaf discs are inoculated by spraying a spore suspension on the lower leaf surface. After an incubation period in a climate cabinet of 24-36 hours in darkness at 20° C., and 75% rh leaf disc are kept at 20° C. with 12 h light/day and 75% rh. The activity of a compound is assessed as percent disease control compared to untreated when an appropriate level of disease damage appears in untreated check leaf disks (12-14 days after application).

[2] = tested on: Puccinia recondita f. sp. tritici; assay: Puccinia recondita f. sp. tritici / wheat / leaf disc curative (brown rust); type: in vivo; conditions: foliar, 24 h, wheat leaf segments cv. Kanzler, curative (applied 1 day after inoculation), compared to untreated control, read-out: control of Puccinia recondita f. sp. tritic
Method: Leaf disks or leaf segments of various plant species are cut from plants grown in a greenhouse. The cut leaf disks or segments are placed in multiwell plates (24-well format) onto water agar. The leaf disks are sprayed with a test solution before (preventative) or after (curative) inoculation. Compounds to be tested are prepared as DMSO solutions (max. 10 mg/ml) which are diluted to the appropriate concentration with 0.025% Tween20 just before spraying. The inoculated leaf disks or segments are incubated under defined conditions (temperature, relative humidity, light, etc.) according to the respective test system. A single evaluation of disease level is carried out 3 to 14 days after inoculation, depending on the pathosystem. Percent disease control relative to the untreated check leaf disks or segments is then calculated. Wheat leaf segments cv. Kanzler are placed on agar in multiwell plates (24-well format). The leaf segments are inoculated with a spore suspension of the fungus. Plates are stored in darkness at 19° C., and 75% rh. The formulated test compound diluted in water is applied 1 day after inoculation. The leaf segments are incubated at 19° C., and 75% rh under a light regime of 12 h light/12 h darkness in a climate cabinet and the activity of a compound is assessed as percent disease control compared to untreated when an appropriate level of disease damage appears in untreated check leaf segments (6-8 days after application).

[3] = tested on: Glomerella lagenarium (Colletotrichum lagenarium); assay: Glomerella lagenarium (Colletotrichum lagenarium) liquid culture / cucumber / preventative (anthracnose); type: cell-based; conditions: Colletotrichum orbiculare, liquid culture (PDB), growth inhibition measured photometrically 3-4 days after application, compared to untreated control
Method: […] fragments or conidia suspensions of a fungus prepared either freshly from liquid cultures of the fungus or from cryogenic storage, are directly mixed into nutrient broth. DMSO solutions of the test compound (max. 10 mg/ml) are diluted with 0.025% Tween20 by a factor of 50 and 10 μl of this solution is pipetted into a microtiter plate (96-well format). The nutrient broth containing the fungal spores/mycelia fragments is then added to give an end concentration of the tested compound. The test plates are incubated in the dark at 24° C., and 96% relative humidity. The inhibition of fungal growth is determined photometrically after 2 to 7 days, depending on the pathosystem, and percent antifungal activity relative to the untreated check is calculated. Conidia of the fungus from cryogenic storage are directly mixed into nutrient broth (PDB potato dextrose broth). Alter placing a (DMSO) solution of test compound into a microtiter plate (96-well format), the nutrient broth containing the fungal spores is added. The test plates are incubated at 24° C., and the inhibition of growth is measured photometrically 3-4 days after application.

Row | SMILES | pest or weed control at 200 ppm [1] | pest or weed control at 200 ppm (Phakopsora pachyrhizi) | pest or weed control at 200 ppm [2] | inhibition of growth at 20 ppm [3] | melting point
1 | CC(C)(C)NC(=O)CN(C(=O)c1ccc(-c2noc(C(F)(F)F)n2)cc1)N1CCOC1=O [Compound 1.2, N-[2-(tert-butylamino)-2-oxo-ethyl]-N-(2-oxooxazolidin-3-yl)-4-[5-(trifluoromethyl)-1,2,4-oxadiazol-3-yl]benzamide] | ≥ 80% | ≥ 80% |  |  | 
2 | CC(=O)NNC(=O)c1ccc(-c2noc(C(F)(F)F)n2)cc1F [Compound 1.4, N′-acetyl-2-fluoro-4-[5-(trifluoromethyl)-1,2,4-oxadiazol-3-yl]benzohydrazide] | ≥ 80% | ≥ 80% | ≥ 80% |  | 
3 | NN(C(=O)c1ccccc1)C(=O)c1ccc(-c2noc(C(F)(F)F)n2)cc1 [Compound 1.5, N-benzoyl-4-[5-(trifluoromethyl)-1,2,4-oxadiazol-3-yl]benzohydrazide] | ≥ 80% |  |  | ≥ 80% | 115.3 to 118.6 °C
4 | O=C(NN1CCCCC1=O)c1ccc(-c2noc(C(F)(F)F)n2)cc1 [Compound 1.7, N-(2-oxo-1-piperidyl)-4-[5-(trifluoromethyl)-1,2,4-oxadiazol-3-yl]benzamide] | ≥ 80% | ≥ 80% |  |  | 192 to 216 °C
5 | CN1CCN(NC(=O)c2ccc(-c3noc(C(F)(F)F)n3)cc2)C1=O [Compound 1.8, N-(3-methyl-2-oxo-imidazolidin-1-yl)-4-[5-(trifluoromethyl)-1,2,4-oxadiazol-3-yl]benzamide] | ≥ 80% | ≥ 80% |  |  | 238 to 245 °C
6 | O=C1CN(NC(=O)c2ccc(-c3noc(C(F)(F)F)n3)cc2)C(=O)N1 [Compound 1.9] |  | ≥ 80% | ≥ 80% |  | 192 to 196 °C
7 | O=C(NN1CCc2ccccc21)c1ccc(-c2noc(C(F)(F)F)n2)cc1 [Compound 1.10, N-indolin-1-yl-4-[5-(trifluoromethyl)-1,2,4-oxadiazol-3-yl]benzamide] | ≥ 80% |  |  | ≥ 80% | 167 to 170 °C
8 | O=C(Nn1ccc2ccccc21)c1ccc(-c2noc(C(F)(F)F)n2)cc1 [Compound 1.11, N-indol-1-yl-4-[5-(trifluoromethyl)-1,2,4-oxadiazol-3-yl]benzamide] | ≥ 80% |  |  | ≥ 80% | 188 to 190 °C
9 | O=C(NN1CCCCC1=O)c1c(F)cc(-c2noc(C(F)(F)F)n2)cc1F [Compound 1.12, 2,6-difluoro-N-(2-oxo-1-piperidyl)-4-[5-(trifluoromethyl)-1,2,4-oxadiazol-3-yl]benzamide] |  |  |  | ≥ 80% | 205 to 209 °C
10 | Cc1cc(-c2noc(C(F)(F)F)n2)cnc1C(=O)NN1CCCCC1=O [Compound 1.13, 3-methyl-N-(2-oxo-1-piperidyl)-5-[5-(trifluoromethyl)-1,2,4-oxadiazol-3-yl]pyridine-2-carboxamide] |  |  |  |  | 159 to 162 °C
11 | O=C(Cc1ccc(-c2noc(C(F)(F)F)n2)cc1)NN1CCCCC1=O [Compound 1.14, N-(2-oxo-1-piperidyl)-2-[4-[5-(trifluoromethyl)-1,2,4-oxadiazol-3-yl]phenyl]acetamide] | ≥ 80% | ≥ 80% | ≥ 80% |  | 165 to 170 °C
12 | O=C(NN1CCOCC1)c1ccc(-c2noc(C(F)(F)F)n2)c(F)c1 [Compound 1.16, 3-fluoro-N-morpholino-4-[5-(trifluoromethyl)-1,2,4-oxadiazol-3-yl]benzamide] | ≥ 80% | ≥ 80% |  |  | 140 to 160 °C
13 | O=C(Cc1ccc(-c2noc(C(F)(F)F)n2)cc1)NN1CCOCC1 [Compound 1.17, N-morpholino-2-[4-[5-(trifluoromethyl)-1,2,4-oxadiazol-3-yl]phenyl]acetamide] | ≥ 80% | ≥ 80% | ≥ 80% |  | 182 to 188 °C
14 | O=C(NNCCO)c1ccc(-c2noc(C(F)(F)F)n2)cc1 [Compound 1.18, N′-(2-hydroxyethyl)-4-[5-(trifluoromethyl)-1,2,4-oxadiazol-3-yl]benzohydrazide] | ≥ 80% |  | ≥ 80% | ≥ 80% | 140 to 149 °C
15 | O=C(NN1CCOC1=O)c1ccc(-c2noc(C(F)(F)F)n2)c(F)c1 [Compound 1.25, 3-fluoro-N-(2-oxooxazolidin-3-yl)-4-[5-(trifluorormethyl)-1,2,4-oxadiazol-3-yl]benzamide] | ≥ 80% |  | ≥ 80% | ≥ 80% | 146 to 166 °C
16 | O=C(Cc1ccc(-c2noc(C(F)(F)F)n2)cc1F)NN1CCOCC1 [Compound 1.28, 2-[2-fluoro-4-[5-(trifluoromethyl)-1,2,4-oxadiazoi-3-yl]phenyl]-N-morpholino-acetamide] |  |  | ≥ 80% | ≥ 80% | 201 to 203 °C
17 | O=C(Cc1ccc(-c2noc(C(F)(F)F)n2)cc1F)NN1CCCCC1=O [Compound 1.29, 2-[2-fluoro-4-[5-(trifluoromethyl)-1,2,4-oxadiazol-3-yl]phenyl]-N-(2-oxo-1-piperidyl)acetamide] | ≥ 80% |  | ≥ 80% | ≥ 80% | 154 to 156 °C
18 | CN(C)NC(=O)Cc1ccc(-c2noc(C(F)(F)F)n2)c(F)c1 [Compound 1.30, 2-[3-fluoro-4-[5-(trifluoromethyl)-1,2,4-oxadiazol-3-yl]phenyl]-N′,N′-dimethyl-acetohydrazide] | ≥ 80% |  | ≥ 80% | ≥ 80% | 163 to 165 °C
19 | O=C(Cc1ccc(-c2noc(C(F)(F)F)n2)c(F)c1)NN1CCOCC1 [Compound 1.31, 2-[3-fluoro-4-[5-(trifluoromethyl)-1,2,4-oxadiazol-3-yl]phenyl]-N-morpholino-acetamide] |  |  | ≥ 80% |  | 207 to 209 °C
20 | O=C(Cc1ccc(-c2noc(C(F)(F)F)n2)c(F)c1)NN1CCCCC1=O [Compound 1.32, 2-[3-flouro-4-[5-(trifluoromethyl)-1,2,4-oxadiazol-3-yl]phenyl]-N-(2-oxo-1-piperidyl)acetamide] | ≥ 80% |  | ≥ 80% | ≥ 80% | 161 to 163 °C

From patent US20190292174A1, “MICROBIOCIDAL OXADIAZOLE DERIVATIVES” (SYNGENTA PARTICIPATIONS AG, priority 2016, published 2019)
